Measurements from PubChem BioAssay AID330 (DTP/NCI, 2004).
Several values for one entry are separate records, joined by “and”; a condition that tells them apart may be missing. Equal values may be shown once. Inconclusive results and toxic doses are left out. The calls were made as follows: active = survival T/C of 150% or more; inactive = T/C below 125% in these data.

Tested on: P388 leukemia ip, CD2F1 mice, survival T/C
Assay: NCI In Vivo Anticancer Drug Screen. Data for tumor model P388 Leukemia (intraperitoneal) in CD2F1 (CDF1) mice
Settings: endpoint: median survival time, higher = longer survival
How it was run: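 Mice carrying the transplanted tumor received test compound or vehicle. Survival was recorded in each group, and the value is the treated-group measurement divided by that of the vehicle-treated control group.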

[1] = dose: 60.0 mg/kg/injection, schedule: Q01DX005 (ip), vehicle: saline with Tween-80
[2] = dose: 120.0 mg/kg/injection, schedule: Q01DX005 (ip), vehicle: saline with Tween-80
[3] = dose: 240.0 mg/kg/injection, schedule: Q01DX005 (ip), vehicle: saline with Tween-80
[4] = dose: 100.0 mg/kg/injection, schedule: Q04DX003 (ip), vehicle: Klucel (hydroxypropylcellulose) (HPC)
[5] = dose: 200.0 mg/kg/injection, schedule: Q04DX003 (ip), vehicle: Klucel (hydroxypropylcellulose) (HPC)
[6] = dose: 50.0 mg/kg/injection, schedule: Q01DX009 (ip), vehicle: Klucel (hydroxypropylcellulose) (HPC)
[7] = dose: 100.0 mg/kg/injection, schedule: Q01DX009 (ip), vehicle: Klucel (hydroxypropylcellulose) (HPC)
[8] = dose: 200.0 mg/kg/injection, schedule: Q01DX009 (ip), vehicle: Klucel (hydroxypropylcellulose) (HPC)
[9] = dose: 50.0 mg/kg/injection, schedule: Q04DX003 (ip), vehicle: Klucel (hydroxypropylcellulose) (HPC)
[10] = dose: 400.0 mg/kg/injection, schedule: Q04DX003 (ip), vehicle: Klucel (hydroxypropylcellulose) (HPC)
[11] = dose: 50.0 mg/kg/injection, schedule: Q01DX005 (ip), vehicle: Klucel (hydroxypropylcellulose) (HPC)
[12] = dose: 100.0 mg/kg/injection, schedule: Q01DX005 (ip), vehicle: Klucel (hydroxypropylcellulose) (HPC)
[13] = dose: 200.0 mg/kg/injection, schedule: Q01DX005 (ip), vehicle: Klucel (hydroxypropylcellulose) (HPC)
[14] = dose: 100.0 mg/kg/injection, schedule: Q01DX009 (ip), vehicle: saline with Tween-80
[15] = dose: 200.0 mg/kg/injection, schedule: Q01DX009 (ip), vehicle: saline with Tween-80
[16] = dose: 400.0 mg/kg/injection, schedule: Q01DX009 (ip), vehicle: saline with Tween-80
[17] = dose: 100.0 mg/kg/injection, schedule: Q04DX003 (ip), vehicle: saline with Tween-80
[18] = dose: 200.0 mg/kg/injection, schedule: Q04DX003 (ip), vehicle: saline with Tween-80

Measured: T/C

COc1ccc2c(O)c3[n+](cc2c1OC)CCc1cc2c(cc1-3)OCO2
inactive: [1] 99 % of control | [2] 104 % of control | [3] 101 % of control

CCC(=O)[O-].CCC(=O)[O-].CCC(=O)[O-].CCC(=O)[O-].O=S(=O)(O)O.[Re].[Re]
inactive: dose: 72.0 mg/kg/injection, schedule: Q01DX009 (ip), vehicle: saline 107 % of control | dose: 103.0 mg/kg/injection, schedule: Q01DX009 (ip), vehicle: saline 100 % of control | dose: 147.0 mg/kg/injection, schedule: Q01DX009 (ip), vehicle: saline 102 % of control | dose: 171.5 mg/kg/injection, schedule: Q01DX009 (ip), vehicle: suspension in saline 109 % of control | dose: 210.0 mg/kg/injection, schedule: Q01DX009 (ip), vehicle: saline 108 % of control | dose: 245.0 mg/kg/injection, schedule: Q01DX009 (ip), vehicle: suspension in saline 120 % of control | dose: 300.0 mg/kg/injection, schedule: Q01DX009 (ip), vehicle: saline 91 % of control

COC1C=C(Br)C(=O)C(C)O1 (configuration not stated)
inactive: [4] 98 % of control | [5] 106 % of control

N#CC12C3C4C5C3C1C(C42)n1c(=O)n(-c2ccccc2)c(=O)n15 (configuration not stated)
inactive: dose: 12.5 mg/kg/injection, schedule: Q01DX009 (ip), vehicle: Klucel (hydroxypropylcellulose) (HPC) 89 % of control and 90 % of control | dose: 25.0 mg/kg/injection, schedule: Q01DX009 (ip), vehicle: Klucel (hydroxypropylcellulose) (HPC) 89 % of control and 92 % of control | [6] 90 % of control and 95 % of control | [7] 98 % of control | [8] 95 % of control

COC(=O)CCCC#C/C=C/CCCC/C=C(Br)\C=C/Br
inactive: dose: 62.5 mg/kg/injection, schedule: Q01DX009 (ip), vehicle: olive oil, sesame oil, peanut oil 101 % of control | dose: 125.0 mg/kg/injection, schedule: Q01DX009 (ip), vehicle: olive oil, sesame oil, peanut oil 96 % of control | dose: 250.0 mg/kg/injection, schedule: Q01DX009 (ip), vehicle: olive oil, sesame oil, peanut oil 98 % of control

Cc1ccc(S(=O)(=O)OCC(C)(C)C)cc1
inactive: [9] 100 % of control | [4] 100 % of control | [5] 100 % of control | [10] 96 % of control

CN=C(NC)c1ccc(NC(=O)c2cc(C)cc(C(=O)Nc3ccc(C(=NC)NC)cc3)c2)cc1
inactive: dose: 3.12 mg/kg/injection, schedule: Q01DX005 (ip), vehicle: saline with Tween-80 103 % of control | dose: 6.25 mg/kg/injection, schedule: Q01DX005 (ip), vehicle: saline with Tween-80 105 % of control | dose: 12.5 mg/kg/injection, schedule: Q01DX005 (ip), vehicle: saline with Tween-80 107 % of control

O=C1OC(c2cccc(Cl)c2)=N/C1=C\C=C/c1ccccc1
inactive: dose: 50.0 mg/kg/injection, schedule: Q01DX009 (ip), vehicle: suspension in saline 93 % of control | dose: 100.0 mg/kg/injection, schedule: Q01DX009 (ip), vehicle: suspension in saline 93 % of control

CCOC(=O)C1CC1C1=C(C)c2cc3[n-]c(cc4nc(cc5[n-]c(cc1n2)c(C)c5CCC(=O)OC)C(CCC(=O)OC)=C4C)c(C)c3C1CC1C(=O)OCC.[Cl-].[Fe+3] (configuration not stated)
inactive: [11] 102 % of control | [12] 86 % of control | [13] 100 % of control

Fc1ccc(CSc2ncnc3nc[nH]c23)cc1
inactive: [14] 90 % of control | [15] 100 % of control | [16] 100 % of control

O=C1CCC(C(Sc2ccccc2)(Sc2ccccc2)Sc2ccccc2)C1 (configuration not stated)
inactive: [6] 97 % of control | [7] 90 % of control | [8] 89 % of control

Oc1c(Br)cc(Br)c2ccccc12
inactive: [14] 105 % of control | [15] 114 % of control | [16] 111 % of control

Cc1cc(C)nc(NS(=O)(=O)c2ccc(N=c3c4ccccc4n(-c4ccccc4)c4ccccc34)cc2)n1
inactive: dose: 50.0 mg/kg/injection, schedule: Q01DX005 (ip), vehicle: saline with Tween-80 97 % of control | dose: 100.0 mg/kg/injection, schedule: Q01DX005 (ip), vehicle: saline with Tween-80 109 % of control | dose: 200.0 mg/kg/injection, schedule: Q01DX005 (ip), vehicle: saline with Tween-80 90 % of control

O=C(CCSCCC(=O)N/N=C/C(O)C(O)C(O)CO)N/N=C/C(O)C(O)C(O)CO (configuration not stated)
inactive: [11] 103 % of control and 97 % of control | [12] 99 % of control and 94 % of control | [13] 99 % of control and 95 % of control

Nc1nc2cc([N+](=O)[O-])cnc2s1
inactive: [4] 103 % of control | [5] 101 % of control | [10] 100 % of control

C[C@]12CCC(=O)C(O)=C1CC[C@H]1[C@@H]3CCC(=O)[C@@]3(C)CC[C@@]12O
inactive: dose: 12.5 mg/kg/injection, schedule: Q01DX005 (ip), vehicle: Klucel (hydroxypropylcellulose) (HPC) 101 % of control | dose: 25.0 mg/kg/injection, schedule: Q01DX005 (ip), vehicle: Klucel (hydroxypropylcellulose) (HPC) 109 % of control | [11] 104 % of control | [12] 104 % of control | [13] 96 % of control

CCN(CC)C1CS(=O)(=O)OC2=C1Cc1ccccc1CC2 (configuration not stated)
inactive: [9] 100 % of control | [4] 99 % of control | [5] 105 % of control

NC(=O)c1[nH]c(/N=N/c2nc[nH]c2C(N)=O)nc1N
inactive: [6] 99 % of control | [7] 99 % of control | [8] 93 % of control

COC1C2OC(C)(C)OC2OC1C(C)N(C)O (configuration not stated)
inactive: dose: 100.0 mg/kg/injection, schedule: Q01DX001 (ip), vehicle: Klucel (hydroxypropylcellulose) (HPC) 103 % of control | dose: 100.0 mg/kg/injection, schedule: Q01DX001 (ip), vehicle: saline 116 % of control | dose: 200.0 mg/kg/injection, schedule: Q01DX001 (ip), vehicle: Klucel (hydroxypropylcellulose) (HPC) 106 % of control | dose: 200.0 mg/kg/injection, schedule: Q01DX001 (ip), vehicle: saline 104 % of control | dose: 400.0 mg/kg/injection, schedule: Q01DX001 (ip), vehicle: Klucel (hydroxypropylcellulose) (HPC) 103 % of control | dose: 400.0 mg/kg/injection, schedule: Q01DX001 (ip), vehicle: saline 99 % of control

CO/C=C/c1cc2c(cc1Br)OCO2
inactive: [1] 105 % of control | [2] 111 % of control | [3] 97 % of control

CCCN(CCC)C(=O)O[Si](C)(C)C(C)(C)C
inactive: dose: 50.0 mg/kg/injection, schedule: Q01DX009 (ip), vehicle: saline with Tween-80 105 % of control | [14] 97 % of control | [15] 105 % of control

COc1ccc(-n2c(C)csc2=S)cc1
inactive: dose: 50.0 mg/kg/injection, schedule: Q04DX003 (ip), vehicle: saline with Tween-80 100 % of control | [17] 100 % of control | [18] 95 % of control

O=C(/C=C/c1ccc(F)cc1)c1ccc(Cl)cc1
inactive: [17] 90 % of control | [18] 86 % of control | dose: 400.0 mg/kg/injection, schedule: Q04DX003 (ip), vehicle: saline with Tween-80 100 % of control

CCOC(=O)Nc1cc(NCC(=O)c2ccc3ccccc3c2)c([N+](=O)[O-])c(N)n1
inactive: dose: 60.0 mg/kg/injection, schedule: Q01DX005 (ip), vehicle: Klucel (hydroxypropylcellulose) (HPC) 92 % of control | dose: 120.0 mg/kg/injection, schedule: Q01DX005 (ip), vehicle: Klucel (hydroxypropylcellulose) (HPC) 91 % of control | dose: 240.0 mg/kg/injection, schedule: Q01DX005 (ip), vehicle: Klucel (hydroxypropylcellulose) (HPC) 98 % of control

CCOC(=O)c1ccc(NC(=S)Nc2ccccc2C(F)(F)F)cc1
inactive: [6] 100 % of control | [7] 100 % of control | [8] 92 % of control

O=C1Nc2ccccc2SC1c1ccccc1Cl (configuration not stated)
inactive: dose: 6.25 mg/kg/injection, schedule: Q01DX009 (ip), vehicle: saline 96 % of control | dose: 12.5 mg/kg/injection, schedule: Q01DX009 (ip), vehicle: saline 99 % of control | dose: 25.0 mg/kg/injection, schedule: Q01DX009 (ip), vehicle: saline 105 % of control | dose: 50.0 mg/kg/injection, schedule: Q01DX009 (ip), vehicle: saline 106 % of control and 93 % of control | dose: 100.0 mg/kg/injection, schedule: Q01DX009 (ip), vehicle: saline 102 % of control | dose: 200.0 mg/kg/injection, schedule: Q01DX009 (ip), vehicle: saline 105 % of control | dose: 400.0 mg/kg/injection, schedule: Q01DX009 (ip), vehicle: saline 113 % of control
